{
  "source": "patent US11052154B2",
  "about": "“Ras protein degradation inducing molecule and pharmaceutical composition” (Tokyo University of Science Foundation, priority 2016, dated 2021)",
  "target": "T1, endogenous wild-type K-Ras protein (Homo sapiens, UniProt P01116)",
  "T1 construct": "an endogenous wild-type K-Ras protein; endogenous in cells; host or cells: HeLa",
  "T1 sequence (P01116 1-188 isoform P01116-2)": "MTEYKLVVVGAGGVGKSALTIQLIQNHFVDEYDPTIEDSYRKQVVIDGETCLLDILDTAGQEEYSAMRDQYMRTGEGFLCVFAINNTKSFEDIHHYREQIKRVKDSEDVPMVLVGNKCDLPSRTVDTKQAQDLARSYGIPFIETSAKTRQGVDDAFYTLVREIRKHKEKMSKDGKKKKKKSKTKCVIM",
  "assay": "Degradation of endogenous wild-type K-Ras protein in HeLa cells, Western blot analysis",
  "format": "cell-based",
  "conditions": "48 hours after addition, vs control (DMSO), FIG. 5",
  "procedure": "In Example 6, degradation (knockdown) of an endogenous wild-type K-Ras protein and wild-type H-Ras protein in HeLa cells to which TUS-007 had been added was evaluated by Western blot analysis.\nHeLa cells were seeded in a 24-well plate at a cell density of 8×10^4 cells/well, and then cultured under conditions of 37° C. and 5 vol % CO2 for 16 hours.\nAfter 16 hours from cell seeding, TUS-007 was added to HeLa cells as follows. As a medium, a serum-free medium (37° C.) in which 1 mass % L-glutamine solution (Sigma-Aldrich) was added to D-MEM (high D-glucose, phenol red, sodium pyruvate (Wako Pure Chemical Industries, Ltd.)) was used. It is noted that the L-glutamine solution was added immediately before use. A DMSO solution containing TUS-007 was mixed with the medium so that the concentration of DMSO was 1 vol %, and added to each well at 500 μL/well, and cultured under conditions of 37° C. and 5 vol % CO2. As a control, DMSO was used. […]\nAfter electrophoresis, proteins were transferred to a PVDF membrane (Immobion™-P, Millipore) under conditions of 100 V and 2 hours using a tank-type blotting device and a transfer buffer (25 mM Tris-HCl, 195 mM glycine, 0.01% SDS, 15% methanol). […] Subsequently, the membrane was treated with a chemiluminescence reagent Immobilon™ Western (Millipore), and then chemiluminescence was detected using a lumino image analyzer LAS-3000 (FUJIFILM Corporation). […]",
  "data": [
    {"smiles": "CCC(C)[C@H](NC(=O)CCCCCCNC(=O)[C@H](CC(C)C)NC(=O)CNC(=O)c1cc(Cl)ccc1Cl)C(=O)Nc1ccc2[nH]c(Cc3c[nH]c4ccccc34)nc2c1", "note": "(stereo in doubt) [TUS-007]", "values": [
      {"measurement": "amount of the endogenous wild-type K-Ras protein (Western blot)", "value": "the amount of the endogenous wild-type K-Ras protein and wild-type H-Ras protein was reduced"}
    ]}
  ]
}
